Measurements: US20210060125A1, “METHOD AND USE OF PnPP-19 FOR PREVENTING AND TREATING EYE DISEASES” (priority 2019, published 2021)
Entries after “also recorded” stand apart in the source; their conditions may differ.

Columns and labels:
[1] = system: Hen's egg chorioallantoic membranes (HET-CAM); assay: HET-CAM ocular irritation model; parameters: key to Irritability classification: NI = Non- irritant; SI = severely irritant; conditions: for OII ± SD (mean cumulative score) / OII ± SD: mean ± S.D., n = 6
Experimental: Hen's egg—chorioallantoic membranes (HET-CAM) were used to assess anti-irritant properties of different concentrations of PnPP-19. PnPP-19 was dissolved in 300 μL of saline in order to achieve the concentration of 40 μg, 80 μg, 160 μg, 320 μg, in 20 μL (the volume of one eye drop). Sodium chloride 0.9% (NaCl) was used as negative control and sodium hydroxide 0.1 M (NaOH) as a positive control.
The reactions were classified according to a semi-quantitatively analysis, on a scale from 0 (no reaction) to 3 (strong reaction). The ocular irritation index (OII) was then calculated by the following expression: […]
where h is time (in seconds) from the beginning of bleeding; l lysis, and c coagulation. The following classification was used: OII≤0.9: […]; 0.9<OII≤4.9: moderately irritant; 4.9<OII≤8.9: irritant; 8.9<OII≤21: severely irritant.

Glaucomatous dogs = conditions: cited from earlier work
[2] = system: HA-induced glaucoma in rats; conditions: cited from earlier work
Human glaucoma = conditions: cited from earlier work
healthy subjects = assay: Phase 1 clinical trial, safety, tolerability and IOP; format: in vivo, human
Experimental: Twelve healthy subjects, 6 males and 6 females, were selected to evaluate the safety and tolerability of PnPP-19. PnPP-19 were applied as one eye drop per day (with 250 μg of peptide in 50 μL saline (0.5%)) for 7 days, in one eye, while vehicle (the formulation without the peptide) was applied in the contralateral eye. The eye were randomized in a double-blind way to each intervention.
The safety was analyzed by an ophthalmologist thought a slit lamp in conjunction with a biomiscrscope to examine the anterior and posterior segment of the eye. This procedure was performed in both eyes, in each subject, in the days 1, 2, 3, 4 and 7 of the treatment.
The tolerability was analyzed thought a daily tolerability questionnaire. […] One patient reported mild headache, that last minutes.
IOP was measured with a non-contact tonometer before and 1,2,4 6 and 24 hours after the instillations of PnPP-19 or vehicle.

[3] = system: male Wistar rats with retinal ischemia; assay: Ischemic retina model, study 2 (pre-treatment or prevention); format: in vivo, rat; conditions: pre-treatment; 3 cd.s.m−2, scotopic; n=6
Experimental: The potential neuroprotective effect of PnPP-19 in the retina was investigated with an animal model of ischemic injury. For this purpose, male Wistar rats were treated with PnPP-19 either before or after induction of ischemia (80 μg in 20 μl (one eye drop) once a day administration for seven days).
Male Wistar rats (180-200 g) were anesthetized intraperitoneally with ketamine hydrochloride 90 mg/kg and xylazine hydrochloride 10.0 mg/kg and the retinas were made ischemic according to the protocols of Hughes (HUGHES, W. F. Quantitation of ischemic damage in the rat retina. Exp Eye Res, 53(5): 573-82, 1991), and of Louzada-Junior et al. (Louzada-Junior, P., Dias, J. J., Santos, W. F., Lachat, J. J., Bradford, H. F., Coutinho-Netto, J. Glutamate Release in Experimental Ischaemia of the Retina: An Approach Using Microdialysis. J Neurochem, 59(1):358-63, 1992). IOP was elevated by cannulating the eye anterior chamber, with a sterile 27-gauge needle attached to a manometer/pump connected to an air reservoir (HUGHES, W. F. Quantitation of ischemic damage in the rat retina. Exp Eye Res, 53(5): 573-82, 1991) elevating the IOP to 155 mmHg for 40 min evoking ischemia (indicated by whitening of the eye fundus as blood flow is interrupted). […]
We measured different layer thicknesses to quantify the degree of cell loss to measure the ischemic damage in the rat retina. […]

[4] = system: male normotensive Wistar rat eye; assay: Eye permeation and diffusion of fluorescence-labeled PnPP-19; format: in vivo; conditions: 80 μg/20 μl eye drop in saline; 3 hours
Experimental: Fluorescence-labeled PnPP-19 (FITC) was applied topically in form of eye drops (peptide dissolved in saline) in a dose of 80 μg/20 μl in the male normotensive Wistar rat eye. Vehicle (saline) was applied in the contralateral eye to be used as control. After 3 hours the eyes were enucleated and prepared for histological analysis using fluorescence microscope APOTOME.2 ZEISS.

[5] = system: glaucomatous male Wistar rats; format: in vivo, rat; conditions: 72 hours after PnPP-19 instillation
Experimental: The effectiveness of the PnPP-19 was first evaluated by measuring the changes in IOP of glaucomatous male Wistar rats (180-220 g, 7 to 10 weeks old, n=6). Glaucoma was induced in the right eye by the injection of 30 μL hyaluronic acid (HA) (10 mg/mL) into the anterior chamber through the clear cornea once per week for 3 weeks on the same calendar day and at the same time. Evaluation of the IOP was performed using a TonoPen (Tono-PenVet, Reichert). To perform the measurements, unsedated animals were topically anesthetized by the instillation of 0.5% proxymetacaine hydrochloride. Three IOP readings (with SE less than 5%) were taken for each eye. The average of these three readings was considered the corresponding value of the IOP. Electroretinogram (ERG) was recorded before and after the glaucoma induction. Eyes were enucleated and corneas and retinas were prepared for histology. The groups of treatment were defined as Healthy or non-glaucomatous—left eye, where HA was not applied; Glaucomatous, Non-treated—right eye, where HA was applied, treated with control (vehicle, saline); […]
The effects of PnPP-19 on rat's vision at the end of the HA glaucomatous model was analyzed by ERG to evaluate if the peptide impacts the visual acuity. […]

normotensive Wistar rats = assay: In vivo single-dose acute toxicology, topical eye drops; parameters: species or system rat; conditions: single topical dose 40, 80, 160 μg in 20 μL
Experimental: Single-dose topical application of PnPP-19 was dissolved in 300 of saline at the dose of 40, 80 and 160 μg, in 20 μL of saline, in the form of eye drops, was evaluated in normotensive Wistar rats (150-200 g), n=4 rats per dose group. Fundoscopy and electroretinography were performed at days 0, 1, 7 and 15 after PnPP-19 administration. At day 15, eye tissue was collected to histopathological analysis. Day 0 was considered as a control time point for any dose to evaluate for observed differences.

[6] = system: ocular hypertensive rabbits; conditions: hypertonic saline into the vitreous body; cited from earlier work
[7] = daily tolerability questionnaire, n=12
[8] = all concentrations tested (40-320 μg in 20 μL)

Compound: [Na+].[OH-] [0.1M NaOH, sodium hydroxide, reference compound]
- Irritability classification ([1]; 0.1 M, positive control): SI
- irritancy ranking in words ([1]; 0.1 M, positive control): severely irritant (8.9<OII≤21: severely irritant)
- OII ± SD (mean cumulative score) ([1]; 0.1 M, positive control): 21.11 ± 0.32
- OII ± SD (mean cumulative score) ([1]; 0.1 M, positive control, listed as 0.1 M NaOH): 21.11±0.32

Compound: Latanoprost
- reduction in IOP (Glaucomatous dogs): 27%

Compound: CC(C)(C)NC[C@H](O)COc1nsnc1N1CCOCC1 [Timolol]
- Average IOP reduction (%) [2]: 25.3%
- Average IOP reduction (%) (Human glaucoma): 18%

Compound: Ac-GERRQYFWIAWYKLANSKK-NH2 (N-terminus and C-terminus assumed) [PnPP-19, Gly Glu Arg Arg Gln Tyr Phe Trp Ile Ala Trp Tyr Lys Leu Ala Asn Ser Lys Lys]
- Safety, slit lamp examination of anterior and posterior segment (healthy subjects; 250 μg in 50 μL saline (0.5%), one drop per day for 7 days, n=12): no safety finding
- Blood pressure, heart rate, weight, physical examination, electrocardiogram (healthy subjects; 250 μg in 50 μL, one drop per day for 7 days, n=12): no difference in blood pressure, heart rate, weight, physical examination and electrocardiogram results
- Relation of reported adverse events to treatment (investigator) (healthy subjects; daily tolerability questionnaire, four events reported): none of those adverse events were related to PnPP-19
- Eye burning after instillation (healthy subjects; [7]): in one patient
- Puritis in the eye after instillation (healthy subjects; [7]): one patient
- ERG b-amp/a-amp ratio [3]: an increasing tendency in b/a ratio; also recorded: prevents vision loss
- Irritability classification ([1]; 40 μg in 20 μL saline): NI
- OII ± SD ([1]; 40 μg in 20 μL saline): ≤0.9 ± 0.0
- Irritability classification ([1]; 80 μg in 20 μL saline): NI
- OII ± SD ([1]; 80 μg in 20 μL saline): ≤0.9 ± 0.0
- Irritability classification ([1]; 160 μg in 20 μL saline): NI
- OII ± SD ([1]; 160 μg in 20 μL saline): ≤0.9 ± 0.0
- Irritability classification ([1]; 320 μg in 20 μL saline): NI
- OII ± SD ([1]; 320 μg in 20 μL saline): ≤0.9 ± 0.0
- irritancy ranking in words [1, 8]: non-irritant
- mean cumulative scores (OII) [1, 8]: ≤ 0.9
- signs of vascular response ([1]; all concentrations tested, observed up to 5 min): did not show any signs of vascular response
- Fluorescence in cornea, vitreous body and retina vs vehicle [4]: permeates the cornea and reaches the retina
- Dark-adapted ERG vs glaucomatous non-treated group [5]: no difference
- Histological morphology of cornea and retina (normotensive Wistar rats; day 15, n=4): keeps the same morphology; also recorded: does not alter the retinal morphology; also recorded: does not alter the cornea morphology
- Fundoscopy vs day 0 (normotensive Wistar rats; days 1, 7, 15, n=4 per dose): No difference was observed; also recorded: does not affect retinal vessels
- Electroretinography a and b wave vs day 0 (normotensive Wistar rats; up to day 15): absence of retinal nerve damage

Compound: CC(C)OC(=O)CCC/C=C\C[C@@H]1[C@@H](CC[C@@H](O)CCc2ccccc2)[C@H](O)C[C@@H]1O [Latanoprost]
- Average IOP reduction (%) [2]: 28.1%
- effect on ocular hypertension [6]: not
- Average IOP reduction (%) (Human glaucoma): 13.1%

Compound: O=C(CCC/C=C\C[C@@H]1[C@@H](CC[C@@H](O)CCc2ccccc2)[C@H](O)C[C@@H]1O)OCCCCO[N+](=O)[O-] [Latanoprostene Bunod]
- effect on ocular hypertension [6]: significantly blunted
- reduction in IOP (Glaucomatous dogs): 44%
- Average IOP reduction (%) (Human glaucoma): 31%
